Key:
Acinetobacter biofilms = experiment: Biofilm biomass, crystal violet staining in 96-well plates; format: cell-based; conditions: 16 hours incubation
Description: (§1) Overnight LB-grown culture was diluted 100 times with 10% LB medium, and 100 μL of the dilution was inoculated into each well of 96-well plates. dATP, dGTP, DNase I, or apyrase was added into wells to result in the desired concentrations. An equivalent volume of 10% LB medium was added into wells as control. Plates were covered with lids and incubated at 30° C. for 16 hours before optical density (OD) was measured at 600 nm for the record of growth. Fifteen microliters of 0.1% crystal violet solution was added into each well for crystal violet staining (CV staining) After 15 min of staining, each well was washed gently three times with 100 μl of PBS buffer. Supernatant in each well was removed and 100 μl of 75% ethanol was added to dissolve crystal violet before measuring optical density at 600 nm (CV OD) for the quantification of biofilm biomass.
(§2) For visualization of biofilm structure (FIG. 2), biofilms were developed as described above. After 16 hours of incubation, supernatant was removed from each well and 100 μl of PBS buffer containing 0.1 mM SYTO-9 green, 10 mM Propidium Iodide (PI) was added for staining in dark for 15 min. Cell images were acquired with a Perkin Elmer UltraView confocal microscope system equipped with an Argon-Krypton laser. Images were taken with an oil immersion 60× objective lens in two channels (488 nm excitation for SYTO9 and 568 nm excitation for PI). […]

[1] = system: Acinetobacter baumannii ATCC 17978; experiment: Bacterial adherence assay on human bronchial epithelial NCI-H292 cells; format: cell-based
Description: Bacterial adherence assay was performed as described ([…]; herein incorporated by reference in its entirety). Human bronchial epithelial cell line NCI-H292 (ATCC CRL-1848; American Tissue Culture Collection, Rockville, Md., USA) were cultured in a petri dish at 37° C. in RPMI 1640 medium (Gibco BRL, Grand Island, N.Y., USA), supplemented with 25 mM HEPES, 2 mM L-glutamine, penicillin G 100,000 U/L, streptomycin 50 mg/L and 10% (v/v) of fetal bovine serum (Gibco BRL), in a humidified atmosphere containing 5% (v/v) of CO2.
When NCI-H292 cells covered about 80% of the bottom of petri dish, the medium was replaced with 0.25% trypsin-EDTA (1689649, MP Biomedicals, Solon Ohio) and the petri dish was incubated at 37° C. for 10 min. NCI-H292 Cells were collected by cell scraper and washed with fresh RPMI 1640 medium three time by centrifuging at 300×g for 3 min. Washed cells were adjusted to the concentration of 1×10^5 cells per ml with fresh RPMI 1640 and 2 ml of cell solution were transferred to each well of a 12-well plate, which contained a 13-mm-diameter plastic coverslip (Thermanox, Nunc, Rochester, N.Y., USA) in each well. The cells were incubated at 37° C. for about 3 days until cells covered about 90% of coverslip and were then washed with phosphate buffered saline (PBS) three times. Acinetobacter baumannii ATCC 17978 grown overnight in Luria Bertani (LB) medium were collected and washed three times with fresh RPMI 1640 medium by centrifuging at 6,000 rpm for 3 min. Bacterial cells were adjusted to the concentration of 1×10^8 CFU/mL (OD600=0.05) and mixed with reagents (400 μM of dATP, or 200 mU/ml of apyrase) as necessary. Each cell monolayer was infected with 1 mL of bacterial suspension and incubated for 60 min at 37° C. in a CO2 5% v/v atmosphere. For damaged cell assays, NCI-H292 cells (around 5%) in the central area of plastic coverslips were damaged by tip of a knife before the infection performed. […] The number of bacteria adhering to 100 cells was determined. […]

Acinetobacter baumannii = Acinetobacter baumannii adherence in mouse wound infection model; format: in vivo, C57BL/6 mice; conditions: burn wound sites treated with 400 mU/mL apyrase during inoculation
Description: Female pathogen-free C57BL/6 mice (Harlan, Indianapolis, Ind.), 12 weeks old, weighing approximately 20-23 grams were used in all experiments. Mice were housed in standard cages at the University Laboratory Animals Facility and were allowed to acclimate for 7 days after delivery prior to the experiment. The animals were kept on a 12 hour light cycle and were provided with rodent chow (LabDiet 5001, PMI Int'l., Richmond, Ind.) and water ad libitum throughout the study.
Pentobarbital (Nembutal, Ovation Pharmaceuticals, Inc., Deerfield, Ill., manufactured by Hospira, Lake Forest, Ill.) was administered intraperatonially (50 mg/kg IP) for anesthesia. During the study, all mice were singly housed and all received 0.1 mg/kg buprenorphine (Buprenex; Reckitt Benckiser Pharmaceuticals Inc., Richmond, Va.) subcutaneously (SQ) twice daily for post-burn pain control.
The skin over the lumbrosacral and back region was clipped using a 35-W model 5-55E electrical clipper (Oyster-Golden A-S, Head no. 80, blade size 40). Depilatory cream (Nair® lotion) was applied for about 1.5 minutes, then wiped off with a damp paper towel. Skin was rinsed under the faucet in lukewarm water and then blotted dry.
The first buprenorphine dose (67 ul/20 g, 83 ul/25 g mouse or 0.1 ug/g) was administered SQ under the skin of the upper back.
All 8 mice were burned. […]

S. aureus = experiment: Biofilm formation, crystal violet staining in 96-well plates; format: cell-based; conditions: 400 μM dATP
Description: as §1

S. maltophilia = experiment: as above; format: cell-based; conditions: 400 μM dATP
Description: as §1

E. coli = experiment: as above; format: cell-based; conditions: 400 μM dATP
Description: as §1, §2

Acinetobacter [2] = experiment: Bacterial initial attachment assay; format: cell-based; conditions: 125 μM dATP; visualized at 2 h, 4 h and 8 h post-treatment
Description: Bacterial initial attachment assay: 1% of an overnight culture was inoculated into the wells of 96-well glass bottom microplate containing 100 μl of 10% LB media, after predetermined incubation time, suspension was removed from each well and rinsed with PBS buffer for three times then biofilm samples were stained with LIVE/DEAD BacLight Bacterial Viability Kits (cat. L7007, Invitrogen) following the instructions in the manual. All microscopic observations and image acquisitions were performed with Olympus IX71 equipped with detectors and filter sets for monitoring of SYTO-9 and propidium iodide (PI). Images were obtained using a 60× objective.

Acinetobacter cultures = experiment: CytoTox-Glo cytotoxicity assay (programmed cell death); format: cell-based; conditions: 24 h post-treatment
Source text: Cytotoxicity Assay: Planktonic cells and biofilm cells were collected as described above and washed with PBS buffer three times. Cell concentration was adjusted to 1-1.5×10^8 CFU/ml with PBS buffer and samples were ready for dead-cell protease activity, which had been released from cells that had lost membrane integrity, by using CytoTox-Glo™ Cytotoxicity Assay (Cat. G9291. Promega. Madison, Wis.) following the instructions by the manufacturer.

Acinetobacter [3] = experiment: Extracellular DNA (eDNA) extraction and quantification; format: cell-based
Description: DNA extraction and quantification: Biofilms were developed as mentioned above for 16 hours and biofilm cells were resuspended with 0.9% NaCl solution, homogenized for 1 min and utilized for eDNA extraction. Planktonic cells were incubated at 30° C. for 8 hours with a 1% of inoculation and cells were washed with fresh 10% of LB broth three times before resuspension in the same volume of 10% of LB broth or 10% LB broth supplemented with 400 μM of dATP. The cells solutions were then incubated at 30° C. for another 2 hour and were ready for eDNA extraction. Biofilm cells suspension and planktonic cultures were treated as previously reported (27) for DNA extraction. Briefly, cell solution was treated with Dispersin B (20 μg/ml) at 37° C. for 30 min followed by treatment of proteinase K (5 μg/ml) for another 30 min at 37° C. Treated cell solution was filtered through a 0.2 μm syringe filter (PES, Water & Process Technologies), elute was used to extract the extracellular DNA by using ethanol precipitation. DNA was dissolved in 50 μl of sterile MilliQ water and the concentration of DNA was measured by using the PicoGreen dsDNA Quantitation Kit (Molecular Probes, Invitrogen).

Row | Molecule | biofilm biomass (Acinetobacter biofilms) | effect on increased bacterial adherence (dATP or damaged cells) ([1]; Apyrase 200 mU/ml) | adherence during initial stages of biofilm formation, cell count per gram of skin tissue (Acinetobacter baumannii) | biofilm formation (S. aureus) | biofilm formation (S. maltophilia) | biofilm formation (E. coli) | rates of attachment in initial biofilm formation (Acinetobacter [2]) | programmed cell death (Cytotox-glo) (Acinetobacter cultures; biofilm form) | programmed cell death (Cytotox-glo) (Acinetobacter cultures; planktonic form) | extracellular DNA (eDNA) release (Acinetobacter [3]; biofilm cultures, more pronounced effect than in planktonic) | extracellular DNA (eDNA) release (Acinetobacter [3]; planktonic cultures) | aggregate formation on human bronchial epithelial cells ([1]; 400 μM dATP in media) | increase of A. baumannii adherence to human bronchial epithelial cells ([1]; 400 μM dATP in media, 1 hour after incubation)
1 | apyrase | reduced biomass | completely arrested | decreased adherence |  |  |  |  |  |  |  |  |  | 
2 | Nc1ncnc2c1ncn2[C@H]1C[C@H](O)[C@@H](COP(=O)(O)OP(=O)(O)OP(=O)(O)O)O1 [dATP, deoxyadenosine triphosphate] | stimulated biofilm biomass |  |  | increased biofilm formation | increased biofilm formation | increased biofilm formation | accelerated rates of attachment | increased levels of programmed cell death | increased levels of programmed cell death | Stimulation of extracellular DNA (eDNA) | Stimulation of extracellular DNA (eDNA) | promoted aggregate formation | about 100 fold
